The source of these data is PMC4082485, “The Rodin-Ohno hypothesis that two enzyme superfamilies descended from one ancestral gene: an unlikely scenario for the origins of translation that will not be dismissed” (Biology Direct, 2014).

In one test the target is T1, HisRS Urzyme (HisRS 2) (Escherichia coli, UniProt P60906).
T1 construct: gene hisS; HisRS invariant core (Motifs 1 and 2, 122-residue base fragment); MBP fusion, TEV cleavage
In words: Michaelis-Menten steady-state kinetics of amino acid activation. The note with it: ATP co-substrate; only kcat/KM free energies plotted. The format is biochemical.

The target of test [1] is T2, TrpRS 46-residue peptide (46-mer, Class I ATP binding site) (Geobacillus stearothermophilus, UniProt P00953).
T2 construct: gene trpS
T2 sequence (P00953 1-46 limits assumed): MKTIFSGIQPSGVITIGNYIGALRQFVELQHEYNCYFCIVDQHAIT
In words: fluorescence titration of ATP with peptide (Mildvan assay).

For test [2], the target named is T3, HisRS 46-residue peptide (46-mer, Class II ATP binding site) (Escherichia coli, UniProt P60906).
T3 construct: gene hisS
T3 sequence (P60906 101-146): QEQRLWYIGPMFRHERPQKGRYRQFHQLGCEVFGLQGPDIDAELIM
The test is described as above. The following applies: pH 4.5; range printed jointly for the TrpRS and HisRS 46-mers, not assigned to either.

T1 sequence (P60906 25-146): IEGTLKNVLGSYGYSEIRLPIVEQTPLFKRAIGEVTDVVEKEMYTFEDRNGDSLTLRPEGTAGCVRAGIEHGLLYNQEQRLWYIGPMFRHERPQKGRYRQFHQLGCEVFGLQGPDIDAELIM

`N[C@@H](Cc1cnc[nH]1)C(=O)O` [histidine]: on HisRS Urzyme (HisRS 2), the “Michaelis-Menten steady-state kinetics of amino acid activation” value is “they both preferentially activate amino acids similar to the original substrate (i.e., Leu and His)”.
In the case of `Nc1ncnc2c1ncn2[C@@H]1O[C@H](COP(=O)(O)OP(=O)(O)OP(=O)(O)O)[C@@H](O)[C@H]1O` [ATP], the Kd in test [1] and in test [2] was 10 to 65 µM each time.
